From US12097262B2, “mTORC1 inhibitors” (THE REGENTS OF THE UNIVERSITY OF CALIFORNIA, priority 2014, dated 2024)
Like-named read-outs stand apart in the source and are kept apart here.

Experiments:
mTOR = mTOR (Homo sapiens, UniProt P42345); assay: Potency of the ASi mTOR inhibition; type: biochemical
SNU-398 = assay: Cell viability assay (CellTiter-Glo), SNU-398; type: cell-based, human; details: for inhibition at 10 µM: read-out: % inhibition at 10 μM SNU-398, 10 μM; for EC50: 72 h after compound treatment
Method: (§1) The cells were grown in appropriate medium (vender recommended) supplemented with 10% heat-inactivated fetal bovine serum (FBS), in tissue culture dishes placed in a humidified incubator maintained at 37° C. in an atmosphere of 5% CO2 and 95% air.
(§2) Cell viability assay. Cells were seeded in a 96-multiwell plate at 3000-4000 cells per well in medium containing FBS and cells were incubated at 37° C. overnight. After 18-20 h, compounds in 10×DMSO solution (n=3) were added to the cells and were incubated for additional 3 days in a humidified incubator in an atmosphere of 5% CO2 and 95% air. After treatment of Cell Titer-Glo® luminescent cell viability assay reagent (Promega Corporation, Madison, WI USA), the luminescence value was recorded using SpectraMax M5 Multi-Mode Microplate Readers (Molecular Devices, LLC, Sunnyvale, CA USA). Concentration response curves were generated on GraphPad Prism (GraphPad Software, La Jolla, CA USA) by calculating the decrease in luminescence values in compound-treated samples relative to the DMSO controls.
(§3) Anti-proliferative effects of compounds were evaluated in human colorectal cancer HCT-15 cells (mutation: KRAS, PIK3CA), human hepatocellular carcinoma SNU-449 (mutation: TP53, CDKN2A), SNU-398 (mutation: CTNNB 1), SNU-182 (mutation: TP53) and renal adenocarcinoma 786-O (mutation: VHL, PTEN, TP53, CDKN2A) in 72 h after compound treatment.

SNU-182 = assay: Cell viability assay (CellTiter-Glo), SNU-182; type: cell-based, human; details: for inhibition at 10 µM: read-out: % inhibition at 10 μM SNU-182, 10 μM; for EC50: 72 h after compound treatment
Method: as §1, §2, §3

SNU-449 = assay: Cell viability assay (CellTiter-Glo), SNU-449; details: for inhibition at 10 µM: SNU-449, read-out: % inhibition at 10 μM SNU-449; for EC50: read-out: EC50 (nM) SNU-449
Method: as §1, §2, §3

786-O = assay: Cell viability assay (CellTiter-Glo), 786-O; type: cell-based, human
Method: as §1, §2, §3

HCT-15 = assay: Cell viability assay (CellTiter-Glo), HCT-15; type: cell-based, human; details: for EC50: 72 h after compound treatment
Method: as §1, §2, §3

[1] = system: mTORC1 and mTORC2 signaling (pS6, p4E-BP1, pAkt S473); assay: Time-course effects on mTORC1 and mTORC2 signaling in SNU-449; type: cell-based, human; details: 0.33-24 h
Method: Cellular Signaling Effects of Class mTOR Inhibitors. Cells were seeded in 60 mm cell culture dishes and incubated 1-2 days until 70-90% confluency. Cells were treated with compound solution in DMSO (1000×) and incubated at 37° C. in a 5% CO2 humidified incubator for a given length of time. Whole cell lysates were prepared using RIPA buffer (R^3792) (TEKnova, Hollister, CA USA) with a phosphatase inhibitor cocktail tablet PhosStop and a protease inhibitor cocktail tablet cOmplete Mini (Roche Diagnostics GmbH, Mannheim, Germany). Cell lysates (based on a certain amount of protein determined by Pierce BCA Protein Assay Kit (PI-23225) (Thermo Fisher Scientific Inc., Waltham, MA USA)) were electrophoresed using a Criterion Tris-HCl gel 4-20% (Bio-Rad Laboratories, Hercules, CA USA) and transferred to a nitrocellulose membrane (162-0115) (Bio-Rad Laboratories, Hercules, CA USA). After incubation for more than 1 h with a blocking buffer at room temperature, membranes were labeled with primary antibodies by overnight incubation at 4° C., followed by 1 hour incubation with horseradish peroxidase-conjugated (HRP-conjugated) secondary antibodies at room temperature. The following antibodies were used for immunoblot: phospho-Akt (S473) (#9271), phospho-Akt (T308) (#2965), total-Akt (#9272), phospho-S6 (Ser240/Ser244) (#2215L), S6 ribosomal protein (#2217), phospho-4E-BP1 (T37/T46) (#2855), total 4E-BP1 (#9644) (Cell Signaling Technology, Inc., Danvers, MA USA), FKBP12 (sc-28814) mouse β-actin (sc-8432) (Santa Cruz Biotechnology, Inc., Dallas, Texas USA), anti-rabbit IgG conjugated with horseradish peroxidase (HRP) (#7074), and anti-mouse IgG conjugated with HRP (#7076) (Cell Signaling Technology, Inc., Danvers, MA USA). Nitrocellulose membranes were exposed with SuperSignal® West Pico Chemiluminescent Substrate or Femto Maximum Sensitivity Substrate (Thermo Fisher Scientific Inc., Waltham, MA USA) and signals were recorded on a CL-Xposure film (Thermo Fisher Scientific Inc., Waltham, MA USA).

[2] = system: TORC1 and TORC2 outputs (p4E-BP1, pS6); assay: Drug washout experiment in SNU-449 cells; type: cell-based, human; details: 30 nM for 3 h, then washout
Method: Cellular Signaling Effects of Class mTOR Inhibitors. Cells were seeded in 60 mm cell culture dishes and incubated 1-2 days until 70-90% confluency. Cells were treated with compound solution in DMSO (1000×) and incubated at 37° C. in a 5% CO2 humidified incubator for a given length of time. […] After incubation for more than 1 h with a blocking buffer at room temperature, membranes were labeled with primary antibodies by overnight incubation at 4° C., followed by 1 hour incubation with horseradish peroxidase-conjugated (HRP-conjugated) secondary antibodies at room temperature. […] Nitrocellulose membranes were exposed with SuperSignal® West Pico Chemiluminescent Substrate or Femto Maximum Sensitivity Substrate (Thermo Fisher Scientific Inc., Waltham, MA USA) and signals were recorded on a CL-Xposure film (Thermo Fisher Scientific Inc., Waltham, MA USA).
Drug Washout Experiment. SNU-449 cells were treated with 30 nM of compounds for 3 h. The medium was aspirated out and cells were washed with fresh 10% FBS in RPMI1640 medium. Then, cells were incubated with fresh 10% FBS in RPMI1640 medium at 37° C. for described time period.

[3] = Effect on blood glucose level in mice; details: mice (n=3), intraperitoneal, Rapamycin treatment group (5 mg/kg, FIG. 10)
Description: Effect on blood glucose level. […] Blood glucose levels (mg/dL) were monitored.

[4] = system: mTORC1 (pS6 S240/244, P-4EBP1); assay: Western blot analysis in SNU-449 cells (E1010); type: cell-based, human; details: 3 hours (FIG. 13B)
Method: FIGS. 13A-13B. FIG. 13A: MCF-7 cells were treated for 4 hours with E1035 and M1071 before harvesting. FIG. 13B: SNU-449 cells were treated with 3 hours with E1010 before harvesting. Cells were lysed and blotted for the indicated proteins. M1071 has the narrowest concentration range between mTORC1 and mTORC2 inhibition. The concentration range between mTORC1 and mTORC2 inhibition widens for E1035.
Cell Culture and Western Blot Analysis. Cells were grown in 6-well plates and treated with inhibitor at the indicated concentrations or with vehicle (0.1% DMSO). Treated cells were lysed, and lysates were resolved by SDS-PAGE, transferred to nitrocellulose and blotted. All antibodies were purchased from Cell Signaling Technology.

[5] = system: mTORC1 and mTORC2 downstream signaling (pS6, p4E-BP1, pAkt S473); assay: Downstream signaling of mTOR by immunoblotting, dose dependence, HCT-15 and SNU-449 cells; type: cell-based, human; details: immunoblot at 3 h after compound treatment
Method: Downstream signaling of mTOR was tested using an immunoblotting method at 3 h after compound treatment.

With `COc1ccc2[nH]c(-c3nn(C(C)C)c4ncnc(N)c34)cc2c1` [MeO-PP242] the IC50 (mTOR) was > 10000 nM.

For `CO[C@H]1C[C@@H]2CC[C@@H](C)[C@@](O)(O2)C(=O)C(=O)N2CCCC[C@H]2C(=O)O[C@H]([C@H](C)C[C@@H]2CC[C@@H](OCCOCc3cn(CCOCCOCCOCCOCCC(=O)NCCCCn4nc(-c5ccc6oc(N)nc6c5)c5c(N)ncnc54)nn3)[C@H](OC)C2)CC(=O)[C@H](C)/C=C(\C)[C@@H](O)[C@@H](OC)C(=O)[C@H](C)C[C@H](C)/C=C/C=C/C=C/1C` [Compound M-3059, 40-O-(2-((1-(20-(4-amino-3-(2-aminobenzo[d]oxazol-5-yl)-1H-pyrazolo[3,4-d]pyrimidin-1-yl)-15-oxo-3,6,9,12-tetraoxa-16-azaicosyl)-1H-1,2,3-triazol-4-yl)methoxy)ethyl)-rapamycin], the inhibition at 10 µM (SNU-398; Homo sapiens) was 50 to 100%, the inhibition at 10 µM (SNU-182; Homo sapiens) was < 25% and the inhibition at 10 µM (SNU-449; Homo sapiens) was < 25%.

In the case of `CO[C@H]1C[C@@H]2CC[C@@H](C)[C@@](O)(O2)C(=O)C(=O)N2CCCC[C@H]2C(=O)O[C@H]([C@H](C)C[C@@H]2CC[C@@H](O)[C@H](OC)C2)CC(=O)[C@H](C)/C=C(\C)[C@@H](O)[C@@H](OC)C(=O)[C@H](C)C[C@H](C)/C=C/C=C/C=C/1C` [Rapamycin, (3 S,6R,7E,9R,10R,12R,14S,15E,17E,19E,21S,23 S,26R,27R,34aS)-9,10,12,13,14,21,22,23,24,25,26,27,32,33,34,34a-hexadecahydro-9,27-dihydroxy-3-[(1R)-2-[(1S,3R,4R)-4-hydroxy-3-methoxycyclohexyl]-1-methylethyl]-10,21-dimethoxy-6,8,12,14,20,26-hexamethyl-23,27-epoxy-3H-pyrido[2,1-c][1,4]-oxaazacyclohentriacontine-1,5,11,28,29(4H,6H,31H)-pentone, reference compound], the inhibition at 10 µM (SNU-398; Homo sapiens) is reported as 25 to 50%, the inhibition at 10 µM (786-O; Homo sapiens, 786-0, read-out: % inhibition at 10 μM 786-O, 10 μM) is reported as < 25% and the inhibition at 10 µM (HCT-15; Homo sapiens, read-out: % inhibition at 10 μM HCT-15, 10 μM) is reported as 25 to 50%. For the same molecule, the inhibition at 10 µM (SNU-182; Homo sapiens) was < 25%, the “p4E-BP1 inhibition, time course” value [1] was “moderate inhibitory activity” and the “phosphorylation of Akt S473, time course” value [1] was “transient feedback activation on Akt S473 at 1 and 3 h, and then a slight inhibition was observed at 24 h”. For the same molecule, the “maintenance of effects after washout” value [2] was “maintained longer after washout compared to asTORi”, the blood glucose level [3] was “no increase in blood glucose levels” and the inhibition at 10 µM (SNU-449; Homo sapiens) was < 25%.

With `COc1ccc2[nH]c(-c3nn(CCCCNC(=O)CCOCCOCCOCCOCCOCCOCCOCCOCCn4cc(COCCO[C@@H]5CC[C@@H](C[C@@H](C)[C@@H]6CC(=O)[C@H](C)/C=C(\C)[C@@H](O)[C@@H](OC)C(=O)[C@H](C)C[C@H](C)/C=C/C=C/C=C(\C)[C@@H](OC)C[C@@H]7CC[C@@H](C)[C@@](O)(O7)C(=O)C(=O)N7CCCC[C@H]7C(=O)O6)C[C@H]5OC)nn4)c4ncnc(N)c34)cc2c1` [Compound E1010] the “inhibition of P-4EBP1” value [4] was “little or no inhibition”, the “inhibition of pS6 (S240/244)” value [4] was “inhibition” and the mTORC1 inhibition [4] was “only partially inhibits mTORC1”.

For `CO[C@H]1C[C@@H]2CC[C@@H](C)[C@@](O)(O2)C(=O)C(=O)N2CCCC[C@H]2C(=O)O[C@H]([C@H](C)C[C@@H]2CC[C@@H](OCCOCc3cn(CCCCn4nc(-c5ccc6oc(N)nc6c5)c5c(N)ncnc54)nn3)[C@H](OC)C2)CC(=O)[C@H](C)/C=C(\C)[C@@H](O)[C@@H](OC)C(=O)[C@H](C)C[C@H](C)/C=C/C=C/C=C/1C` [Compound M-1115, 40-O-(2-((1-(4-(4-amino-3-(2-aminobenzo[d]oxazol-5-yl)-^1H-pyrazolo[3,4-d]pyrimidin-1-yl)butyl)-1H-1,2,3-triazol-4-yl)methoxy)ethyl)-rapamycin], the EC50 (SNU-398; Homo sapiens) was 10 to 50 nM, the EC50 (786-O; Homo sapiens, 786-0, 72 h after compound treatment) was > 100 nM and the EC50 (HCT-15; Homo sapiens) was > 100 nM. For the same molecule, the EC50 (SNU-182; Homo sapiens) was 10 to 50 nM, the p4E-BP1 inhibition [5] was “weaker p4E-BP1 inhibition” and the EC50 (SNU-449; Homo sapiens, SNU-449, 72 h) was > 100 nM.

For `COC1CC2CCC(C)C(O)(O2)C(=O)C(=O)N2CCCCC2C(=O)OC(C(C)CC2CCC(OCCOCc3cn(CCOCCOCCOCCOCCOCCOCCOCCNC(=O)CCCCn4nc(-c5ccc6oc(N)nc6c5)c5c(N)ncnc54)nn3)C(OC)C2)CC(=O)C(C)C=C(C)C(O)C(OC)C(=O)C(C)CC(C)C=CC=CC=C1C` (stereo not shown) [Compound M-1111, 40-O-(2-((1-(29-(4-amino-3-(2-aminobenzo[d]oxazol-5-yl)-1H-pyrazolo[3,4-d]pyrimidin-1-yl)-25-oxo-3,6,9,12,15,18,21-heptaoxa-24-azanonacosyl)-1H-1,2,3-triazol-4-yl)methoxy)ethyl)-rapamycin], the “% inhibition at 10 μM SNU-398” value (SNU-398; 10 μM) was “+++ (50% < +++ ≤ 100%)”, the EC50 (SNU-398) was < 10 nM and the “% inhibition at 10 μM 786-O” value (786-O; 10 μM) was “+++ (50% < +++ ≤ 100%)”. For the same molecule, the EC50 (786-O; 72 h after compound treatment) was 10 to 50 nM, the “% inhibition at 10 μM HCT-15” value (HCT-15; 10 μM) was “+++ (50% < +++ ≤ 100%)” and the EC50 (HCT-15) was 10 to 50 nM. The “% inhibition at 10 μM SNU-182” value (SNU-182; 10 μM) was “++ (25% < ++ ≤ 50%)”, the EC50 (SNU-182) was < 10 nM and the “mTORC1/2 downstream inhibition (pS6, p4E-BP1 and pAkt S473)” value [5] was “stronger inhibition of mTORC1 signaling (pS6 and p4E-BP1) compared to mTORC2 downstream Akt S473 phosphorylation”. The p4E-BP1 inhibition [5] was “complete p4E-BP1 inhibition at drug concentrations in which pAkt S473 is not inhibited”, the “% inhibition at 10 μM SNU-449” value (SNU-449; 10 μM, SNU-449) was “++ (25% < ++ ≤ 50%)” and the EC50 (SNU-449; SNU-449, 72 h after compound treatment) was < 10 nM.
